Target: avidin-bound TOPI-5 (Gallus gallus, UniProt P02701)
Assay: Displacement assay, TOPI-5–avidin complex
Assay type: binding
Conditions: complex 90 nM, compound 50 µM

Chain of avidin-bound TOPI-5 (P02701 25-152): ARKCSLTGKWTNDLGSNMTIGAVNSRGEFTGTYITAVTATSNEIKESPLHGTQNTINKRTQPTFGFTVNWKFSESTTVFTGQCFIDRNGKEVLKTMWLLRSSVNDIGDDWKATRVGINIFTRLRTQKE

O=C(O)CCCC[C@@H]1SC[C@@H]2NC(=O)N[C@@H]21 [biotin]
displacement of avidin-bound TOPI-5: displacement
